Where two headings read alike, the source gives them in different places.

The nature of data set [1]: Pharmacokinetic experiment in rats. The format is in vivo, Sprague-Dawley rats. The note with it: rat; for AUC(0-t) / Cmax / Tmax / half-life / AUC(0-inf) / clearance / MRT inf / Vd / bioavailability: male, Sprague-Dawley, plasma; for AUC(0-inf): read-out: AUCINF—pred; for clearance: read-out: Cl—pred (converted); for MRT inf: read-out: MRTINF—pred; for Vd: read-out: Vz—pred; for bioavailability: PO 10 mg/kg vs IV 0.5 mg/kg. On the procedure: Six male Sprague-Dawley rats, 7 to 8 weeks old, weighing approximately 210 g, were divided into 2 groups with 3 rats in each group. The pharmacokinetic differences were compared after administering to the rats a single dose of compounds through vein (in vein 0.5 mg/kg) or mouth (orally 10 mg/kg).
The rats were fed with standard feed, given water, and fasted 16 hours before the experiment. The drugs were dissolved with PEG400 and dimethyl sulfoxide. Orbital blood was collected at the time point of 0.083, 0.25, 0.5, 1, 2, 4, 6, 8, 12 and 24 hours after administration.
The rats were anesthetized for a short time after inhaling ether, and 300 μL of blood sample was collected from the orbit and put into a test tube, which contains 30 μL of 1% heparin salt solution. The test tubes were dried overnight at 60° C. prior to use. After the blood sample collection at the last time point, the rats were killed after the ether anesthesia.
Immediately after the blood sample collection, the test tubes were gently inverted at least 5 times to ensure the fully mixing and placed them on ice. The blood samples were centrifuged at 4° C., 5000 rpm for 5 minutes to separate the plasma from the red blood cells. 100 μL of plasma was pipetted into a clean plastic centrifuge tube, with the name of the compound and time point on it. The plasma was stored at −80° C. before analysis, and LC-MS/MS was used to determine the concentration of the compounds disclosed herein in plasma. Pharmacokinetic parameters were calculated based on the plasma concentrations of each animal at different time points.

Data set [2] has as its system lung cancer cells NCI-H1975 (L858R/T790M). As to the kind of experiment: MTS cell viability assay, NCI-H1975. The format is cell-based. Particulars: Homo sapiens, 72 hours. How it is done: (§1) Cell line: Skin cancer cell line A431 (purchased from the American Type Culture Collection (ATCC)); lung cancer cells NCI-H1975 (purchased from the American Type Culture Collection (ATCC)) and HCC827 (purchased from the American Type Culture Collection (ATCC)). All of the cells were cultured in RPMI1640 medium containing 10% fetal bovine serum, 100 U/ml penicillin, and 100 μg/ml streptomycin.
(§2) Reagents and materials: RPMI-1640 (GIBCO, Cat. No. A10491-01); fetal bovine serum (GIBCO, Cat. No. 10099141); 0.25% trypsin-EDTA (GIBCO, Cat. No. 25200); penicillin-streptomycin, liquid (GIBCO, Cat. No. 15140-122); DMSO (Sigma, Cat. No. D2650); MTS Test Kit (Promega, Cat. No. G3581), 96-well plate (Corning, Cat. No. 3365).
(§3) Compound preparation: the test compound was dissolved in DMSO to make a 20 mM stock solution and stored at −20° C. It was diluted in DMSO with a 3-fold series gradient dilution for 10 times. The dilutions were diluted 4 fold with cell culture medium.
(§4) MTS cell viability assay: cells in logarithmic growth phase was digested with 0.25% trypsin-EDTA, and 150 μl of the cells was inoculated in 96-well plates at an optimized density. After 24 hours, the compound diluted 4 fold by adding the medium, 50 μl/well (generally 10 Concentrations were selected: 100, 33.3, 11.1, 3.70, 1.23, 0.412, 0.137, 0.0457, 0.0152, 0.00508 μM). A well added with the same volume of 0.5% DMSO was used as a control. After the cells were cultured for further 72 hours, the cell viability was detected with MTS.
(§5) Specific procedure: cells were adhered, the medium was discarded, and a mixture containing 20 μL MTS and 100 μL medium was added to each well. The OD490 was detected after being placed in the incubator for 1-4 hours, and the OD650 value was used as a reference. A dose-effect curve was prepared using GraphPad Prism software and IC50 was calculated.

In another data set the test system is EGFR mutant kinase. The note with it: cited from earlier work.
The next data set concerns the target EGFR [L858R/T790M] (Homo sapiens (Human), UniProt P00533, L858R/T790M). The data set is described as follows: EGFR [L858R/T790M] kinase assay (HTRF Kinase TK kit). The format is biochemical. The source says:
(§6) WT EGFR (Cana, Cat. No. 08-115), EGFR [L858R] (Carna, Cat. No. 08-502), EGFR [L858R/T790M] (Carna, Cat. No. 08-510), ATP (Sigma, Cat. No. A7699-1G), DMSO (Sigma, Cat. No. D2650), 96-well plate (Corning, Cat. No. 3365), 384-well plate (Greiner, Cat. No. 784076), HTRF Kinase TK Kit (Cisbio, Cat. No. 62TK0PEJ), Erlotinib (Selleckchem, Cat. No. S7787), EGFR [d746-750] (Life Technologies, Cat. No. PV6178), 5× Kinase Buffer A (Life Technologies, Cat. No. PV3186), Kinase Tracer 199 (Life Technologies, Cat. No. PV5830), LanthaScreen® Eu-anti-GST antibody (Life Technologies, Cat. No. PV5594).
(§7) Compound preparation: the test compound was dissolved in DMSO to make a 20 mM stock solution. Then, it was diluted in DMSO with a 3-fold series gradient dilution for 10 times. The dilutions were diluted 10 fold with buffer when dosing.
(§8) WT EGFR and EGFR [L858R/T790M] kinase assay: WT EGFR or EGFR [L858R/T790M] kinase was mixed with different concentrations of pre-diluted compounds for 10 minutes in 5× Kinase Buffer A in duplicate. The corresponding substrate and ATP were added and reacted at room temperature for 20 minutes (in which a negative and a positive control were set: the negative control is blank and the positive control is AZD9291). After the reaction, the detection reagent (the reagent in the HTRF Kinase TK kit) was added, and after incubation at room temperature for 30 minutes, the enzyme activity in the presence of the compounds of the present disclosure at each concentration was measured by an Evnvision microplate reader, and the inhibition of the enzyme by the compound at each concentrations were calculated. The inhibitions of the enzyme activity by the compounds at different concentrations were then fitted using Graphpad 5.0 software according to the four-parameter equation, and the IC50 values were calculated.

The test system of data set [3] is lung cancer cells HCC827 (Del19). As to the kind of experiment: MTS cell viability assay, HCC827. Type of data set: cell-based. Particulars: Homo sapiens, 72 hours. On the procedure: as §1, §2, §3, §4, §5
The next data set concerns the target WT EGFR (Homo sapiens (Human), UniProt P00533). As to the kind of experiment: WT EGFR kinase assay (HTRF Kinase TK kit). Type of data set: biochemical.
Source text: as §6, §7, §8

Data set [4] deals with Skin cancer cell line A431 (WT). As to the kind of experiment: MTS cell viability assay, A431. The format is cell-based. The note with it: Homo sapiens, A-431, 72 hours. How it is done: as §1, §2, §3, §4, §5

Sequence of EGFR [L858R/T790M] (P00533 25-1210 T790M/L858R): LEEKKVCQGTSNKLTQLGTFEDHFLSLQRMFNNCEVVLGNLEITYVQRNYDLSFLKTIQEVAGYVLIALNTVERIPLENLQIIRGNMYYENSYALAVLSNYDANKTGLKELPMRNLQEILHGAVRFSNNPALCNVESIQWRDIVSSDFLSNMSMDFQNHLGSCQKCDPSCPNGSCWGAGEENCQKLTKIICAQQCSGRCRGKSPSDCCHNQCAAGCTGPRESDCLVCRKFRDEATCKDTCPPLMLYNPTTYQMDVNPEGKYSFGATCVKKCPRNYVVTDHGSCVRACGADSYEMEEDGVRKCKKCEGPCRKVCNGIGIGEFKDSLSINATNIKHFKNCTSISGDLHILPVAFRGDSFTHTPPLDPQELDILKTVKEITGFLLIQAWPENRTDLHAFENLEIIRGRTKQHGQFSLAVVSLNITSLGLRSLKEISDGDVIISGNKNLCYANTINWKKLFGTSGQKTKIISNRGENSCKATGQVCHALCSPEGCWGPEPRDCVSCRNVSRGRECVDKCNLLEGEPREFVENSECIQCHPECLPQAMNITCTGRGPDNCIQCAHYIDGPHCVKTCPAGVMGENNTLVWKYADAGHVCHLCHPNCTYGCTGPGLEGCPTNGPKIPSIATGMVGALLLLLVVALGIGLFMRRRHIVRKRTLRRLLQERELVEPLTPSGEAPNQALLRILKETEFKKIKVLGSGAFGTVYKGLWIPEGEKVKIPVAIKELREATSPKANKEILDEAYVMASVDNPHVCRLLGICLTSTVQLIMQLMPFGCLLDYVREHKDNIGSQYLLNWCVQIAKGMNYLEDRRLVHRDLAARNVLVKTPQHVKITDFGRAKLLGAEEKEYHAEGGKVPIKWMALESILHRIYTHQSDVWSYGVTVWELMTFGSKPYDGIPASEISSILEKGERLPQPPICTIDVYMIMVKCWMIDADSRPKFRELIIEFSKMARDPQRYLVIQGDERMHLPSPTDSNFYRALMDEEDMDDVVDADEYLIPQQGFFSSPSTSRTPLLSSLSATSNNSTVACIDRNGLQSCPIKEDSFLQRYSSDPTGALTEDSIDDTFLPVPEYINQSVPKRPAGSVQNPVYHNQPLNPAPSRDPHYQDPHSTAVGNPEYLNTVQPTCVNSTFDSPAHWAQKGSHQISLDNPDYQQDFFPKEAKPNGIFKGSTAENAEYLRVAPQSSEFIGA
Sequence of WT EGFR (P00533 25-1210): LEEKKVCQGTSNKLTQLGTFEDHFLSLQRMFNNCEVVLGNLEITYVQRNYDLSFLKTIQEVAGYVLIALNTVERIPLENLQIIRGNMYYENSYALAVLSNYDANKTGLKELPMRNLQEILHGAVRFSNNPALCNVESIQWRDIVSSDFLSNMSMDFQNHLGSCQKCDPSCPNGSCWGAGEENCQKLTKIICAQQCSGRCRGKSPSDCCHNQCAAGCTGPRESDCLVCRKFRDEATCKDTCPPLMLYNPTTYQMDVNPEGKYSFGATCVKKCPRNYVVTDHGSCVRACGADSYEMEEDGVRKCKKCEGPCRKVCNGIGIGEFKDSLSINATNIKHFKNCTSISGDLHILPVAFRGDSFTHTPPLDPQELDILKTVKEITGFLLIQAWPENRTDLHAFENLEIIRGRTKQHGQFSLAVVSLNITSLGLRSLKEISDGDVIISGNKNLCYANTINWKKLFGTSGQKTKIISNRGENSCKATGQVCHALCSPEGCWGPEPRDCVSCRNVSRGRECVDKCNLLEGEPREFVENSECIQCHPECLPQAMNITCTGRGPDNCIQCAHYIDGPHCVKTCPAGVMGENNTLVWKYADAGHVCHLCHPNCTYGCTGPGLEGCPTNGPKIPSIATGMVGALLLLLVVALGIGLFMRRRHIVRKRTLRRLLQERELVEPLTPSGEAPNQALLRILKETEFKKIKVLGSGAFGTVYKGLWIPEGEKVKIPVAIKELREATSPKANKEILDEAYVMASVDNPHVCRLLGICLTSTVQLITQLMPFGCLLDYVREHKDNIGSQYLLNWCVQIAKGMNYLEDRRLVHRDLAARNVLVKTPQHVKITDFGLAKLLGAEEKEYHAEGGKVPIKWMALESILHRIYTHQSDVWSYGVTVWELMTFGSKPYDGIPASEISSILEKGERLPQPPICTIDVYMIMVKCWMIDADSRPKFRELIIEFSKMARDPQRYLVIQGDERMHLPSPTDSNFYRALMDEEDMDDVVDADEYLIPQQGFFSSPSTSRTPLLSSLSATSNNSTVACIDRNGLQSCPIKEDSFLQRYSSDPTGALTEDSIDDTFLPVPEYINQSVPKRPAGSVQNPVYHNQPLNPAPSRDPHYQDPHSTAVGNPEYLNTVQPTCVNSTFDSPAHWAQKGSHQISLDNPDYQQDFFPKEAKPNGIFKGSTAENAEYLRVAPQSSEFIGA

Turning to `C=CC(=O)Nc1cc(Nc2nccc(-n3cc(CN(C)C)c(-c4ccccc4)n3)n2)c(OC)cc1N1CCOCC1` [Compound T-0, reference compound], in data set [1] (IV 0.5 mg/kg single dose), the AUC(0-t) worked out at 477 ng·h/mL, the peak level (Cmax) was 323 ng/mL, the time to peak (Tmax) was found to be 0.08 h and the half-life is 3.78 h. In addition, in data set [1] (IV 0.5 mg/kg single dose), the AUC(0-inf) came to 498 ng·h/mL, the clearance is 17.5 mL/min/kg, the MRT inf was determined as 2.95 h and the Vd was determined as 5.73 L/kg. Also, in data set [1] (PO 10 mg/kg single dose), the AUC(0-t) turned out to be 1600 ng·h/mL, the Cmax came to 115 ng/mL, the Tmax worked out at 1.33 h and the half-life was 7.55 h. Also, in data set [1] (PO 10 mg/kg single dose), the AUC(0-inf) amounted to 1800 ng·h/mL, the MRT inf worked out at 9.19 h, the “Cl—pred” value turned out to be 94.2 mL/min/kg and the “Vz—pred” value is 61.56 L/kg. The compound further returned a bioavailability in data set [1] of 16.7%. In addition, in data set [2], the IC50 was 4.7 nM. Also, the “inhibitory activity against EGFR mutant kinase (in words)” value in the data set on EGFR mutant kinase is reported as “significant inhibitory activity”. The compound further returned an IC50 against EGFR [L858R/T790M] of under 0.3 nM. This compound also had an IC50 in data set [3] of 4.2 nM. Moreover, the IC50 against WT EGFR was under 2 nM. In data set [4], this compound yielded an IC50 of 200 to 450 nM.

In the case of `[2H]c1c(C([2H])([2H])N(C)C)c(-c2ccccc2)nn1-c1ccnc(Nc2cc(NC(=O)C=C)c(N3CCOCC3)cc2OC)n1` [Compound T-1, N-(5-((4-(4-((dimethylamino)methyl-d2)-3-phenyl-1H-pyrazol-1-yl-5-d)pyrimidin-2-yl)amino)-4-methoxy-2-morpholinophenyl)acrylamide], the IC50 is 3.62 nM in data set [2]; under 0.3 nM at EGFR [L858R/T790M]; 1.56 nM in data set [3]; under 2 nM on WT EGFR; 200 to 450 nM in data set [4].

For the compound `[2H]c1c([2H])c([2H])c(-c2nn(-c3ccnc(Nc4cc(NC(=O)C=C)c(N5CCOCC5)cc4OC)n3)cc2CN(C)C)c([2H])c1[2H]` [Compound T-2, N-(5-((4-(4-((dimethylamino)methyl)-3-(phenyl-d5)-1H-pyrazol-1-yl)pyrimidin-2-yl)amino)-4-methoxy-2-morpholinophenyl)acrylamide], the IC50 was 3.57 nM in data set [2]; under 0.3 nM on EGFR [L858R/T790M]; 1.98 nM in data set [3]; under 2 nM on WT EGFR; 200 to 450 nM in data set [4].

As for `[2H]C([2H])([2H])Oc1cc(N2CCOCC2)c(NC(=O)C=C)cc1Nc1nccc(-n2cc(CN(C)C)c(-c3ccccc3)n2)n1` [Compound T-3, N-(5-((4-(4-((dimethylamino)methyl)-3-phenyl-1H-pyrazol-1-yl)pyrimidin-2-yl)amino)-4-(methoxy-d3)-2-morpholinophenyl)acrylamide], in data set [1] (IV 0.5 mg/kg single dose), the AUC(0-t) came out at 436 ng·h/mL, the peak level (Cmax) was 299 ng/mL, the Tmax amounted to 0.08 h and the half-life is 3.56 h. Besides, in data set [1] (IV 0.5 mg/kg single dose), the AUC(0-inf) was determined as 456 ng·h/mL, the clearance is 18.5 mL/min/kg, the MRT inf was 3.34 h and the Vd worked out at 5.71 L/kg. In data set [1] (PO 10 mg/kg single dose), the AUC(0-t) was 1650 ng·h/mL, the Cmax turned out to be 120 ng/mL, the Tmax is 4 h and the half-life was 7.48 h. In data set [1] (PO 10 mg/kg single dose), the AUC(0-inf) was 1920 ng·h/mL, the MRT inf came out at 8.67 h, the “Cl—pred” value was 88 mL/min/kg and the “Vz—pred” value is on record as 56.99 L/kg. For the same compound, the bioavailability in data set [1] is 18.9%. Further, the “Cmax, AUClast and oral availability (F %) compared with compound T-0 (in words)” value in data set [1] (orally) is reported as “better metabolic parameters”. The compound also registered an IC50 in data set [2] of 4.53 nM. Further, at EGFR [L858R/T790M], the 50% inhibitory concentration (IC50) was under 0.3 nM. Further, in data set [3], 2.27 nM corresponded to half-maximal inhibition (IC50). The compound also displayed an IC50 on WT EGFR of under 2 nM. This compound also registered an IC50 in data set [4] of 200 to 450 nM.

On to `[2H]C([2H])([2H])N(Cc1cn(-c2ccnc(Nc3cc(NC(=O)C=C)c(N4CCOCC4)cc3OC)n2)nc1-c1ccccc1)C([2H])([2H])[2H]` [Compound T-4, N-(5-((4-(4-((bis(methyl-d3)amino)methyl)-3-phenyl-1H-pyrazol-1-yl)pyrimidin-2-yl)amino)-4-methoxy-2-morpholinophenyl)acrylamide], for which the IC50 was 5.02 nM in data set [2]; under 0.3 nM on EGFR [L858R/T790M]; 2.5 nM in data set [3]; under 2 nM against WT EGFR; 200 to 450 nM in data set [4].

Turning to `[2H]c1c([2H])c([2H])c(-c2nn(-c3ccnc(Nc4cc(NC(=O)C=C)c(N5CCOCC5)cc4OC)n3)cc2CN(C([2H])([2H])[2H])C([2H])([2H])[2H])c([2H])c1[2H]` [Compound T-6, N-(5-((4-(4-((bis(methyl-d3)amino)methyl)-3-(phenyl-d5)-1H-pyrazol-1-yl)pyrimidin-2-yl)amino)-4-methoxy-2-morpholinophenyl)acrylamide], the IC50 in data set [2] was 4.23 nM; against EGFR [L858R/T790M], under 0.3 nM; in data set [3] it was 2 nM; against WT EGFR it was under 2 nM; in data set [4], 200 to 450 nM.
